Results reported in publication PMC12888920, “MMP-9 regulates disulphide isomerase activity of TGM2 to enhance fusion glycoprotein-mediated syncytium formation of respiratory syncytial virus” (Protein & Cell, 2025).

Test system: RSV A2
Experiment: BALB/c mouse model of RSV A2 infection, oral treatment
Type: in vivo, BALB/c mice
Details: 4 dpi, 3 × 10^6 PFU RSV A2
Description: To evaluate the antiviral efficacy of metalloproteinase inhibitors, we employed a BALB/c mouse model intranasally challenged with 3 × 10^6 PFU RSV A2. Mice received twice-daily oral administration of JNJ0966 (selective targeting of MMP-9 ([Scannevin et al., 2017]), 20 or 60 mg/kg [mpk]) or doxycycline hyclate (a broad-spectrum MMP inhibitor ([Patnaik et al., 2021]; [Samtani et al., 2009]), 60 or 180 mpk), beginning 2 hpi (Fig. 9A). By 4 dpi, JNJ0966 (60 mpk) and doxycycline hyclate (180 mpk) reduced lung viral titers by 2.6-fold and 2.0-fold, respectively, compared to vehicle-treated controls (Fig. 9B).
Figure 9. Therapeutic efficacy of MMP-9 inhibitors against RSV in mice. (A) Therapeutic regimen. […] Lung viral titers quantified by FFA at 4 dpi. mean ± SD, n = 5/group. […] Statistical significance was determined by one-way ANOVA with Dunnett’s post hoc test (B, D): **P < 0.01, ***P < 0.001. […]
314 50 μL of stop solution, absorbance at 540 nm was subtracted from the reading at
315 450 nm by PerkinElmer Ensight reader, and analyte concentrations were calculated […]
329 using a tissue grinder. Viral titers were quantified via FFA using 100 μL of […]
332 Two blinded pathologists independently scored histopathological changes on a 0 -4 […]
336 Body weights were monitored daily. […]
337 transcriptomic analyses. Viral loads were determined as focus -forming units per gram […]

Row | Compound | reduction of lung viral titers compared to vehicle-treated controls (60 mpk oral twice daily) | reduction of lung viral titers compared to vehicle-treated controls (180 mpk oral twice daily)
1 | COc1ccccc1Nc1nc(-c2sc(NC(C)=O)nc2C)cs1 [JNJ0966] | 2.6 fold | 
2 | Doxycycline hyclate |  | 2.0 fold
